“And” between values parts separate entries of the source, which are not always exact repeats. Equal entries are not always repeated. Non-standard residues stand in square brackets, D forms with d. Residues, ends and D or L forms follow the SMILES beside them.
Assays:
[1] = system: sheep red blood cells; assay: Hemolysis assay
[2] = system: MRSA USA 300; assay: Time-kill assay; format: cell-based, Staphylococcus aureus
Procedure: Time-kill assays were done in tubes (in 1.5 mL of LB) and antibiotics at the 1 ×, 2 ×, 4 × and 8 × MIC. Tubes were inoculated (5 × 10^6 CFU/mL) with MRSA USA 300 and K. pneumoniae ATCC 700603 and incubated at 37 °C under shaking. Serial dilutions of the cultures were plated at each desired time point (0, 1, 3, 6, and 24 h), using a multichannel pipette as follows: in line 1 of a 96-well plate, 100 µL of bacterial suspension was added, while 90 µL of 0.9% sterile saline per well was added to the other lines. At selected time points, 100 µL of bacterial suspension was transferred from the time-kill assay plate to the first line. The wells were further diluted 1 in 10 (0.9% saline) for the appropriate number of dilutions and 10 μL of each dilution was spotted in duplicate onto MH agar plates, then incubated overnight at 37°C. The colonies in each spot were counted and used to calculate the number of viable CFU/mL remaining in the original culture by considering the dilution factors.

[3] = system: MRSA USA 300; assay: microbe, parasite or virus in culture; format: cell-based, Staphylococcus aureus
Procedure: (§1) MRSA USA 300 and K. pneumoniae ATCC 700603 were employed to assess the development of resistance. From inoculated microtiter panels, an aliquot of the well with the highest concentration permitting growth was taken and back diluted in fresh media to a turbidity of a 0.5 McFarland standard. This suspension was then further diluted and used to inoculate a fresh MIC panel resulting in a final concentration of 5 × 10^6 CFU/mL. Panels were incubated according to CLSI guidelines (M07, 11th edition, 2018), MICs were recorded and the next inoculum was prepared from the well containing the highest concentration of drug that allowed growth in identical fashion as described above.

[4] = system: K. pneumoniae ATCC 700603; assay: microbe, parasite or virus in culture; format: cell-based, Klebsiella pneumoniae
Procedure: as §1

CC[C@@H](C)[C@@H](NC(=O)[C@@H](Cc1ccccc1)NC(=O)[C@@H](Cc1ccccc1)NC(=O)[C@@H](Cc1ccccc1)NC(=O)[C@H](N)Cc1ccccc1)C(=O)N[C@H](CCCNC(=N)N)C(=O)N[C@H](CCCNC(=N)N)C(=O)N[C@H](CC(C)C)C(=O)N[C@H](Cc1ccccc1)C(=O)N[C@H](CCCNC(=N)N)C(N)=O [RI-HT2] (H-[dF][dF][dF][dF][dI][dR][dR][dL][dF][dR]-NH2; N-terminus assumed)
OD450, hemolysis (Fig 2b), replicates ([1]; 6.25 µM): 0.01607 (2×) and 0.02078 and 0.0162 (2×) and 0.02093
OD450, hemolysis (Fig 2b), replicates ([1]; 12.5 µM): 0.02038 (2×) and 0.02274 and 0.02054 (2×) and 0.02291
HC10 (concentration inducing 10% hemolysis) ([1]; red cells of sheep, 1 h): > 100.0 µM
viable count, time-kill ([2]; 2 × MIC, 0 h): 17000000 CFU/mL and 16000000 CFU/mL
viable count, time-kill ([2]; 2 × MIC, 1 h): 18000 CFU/mL and 21000 CFU/mL and 20000 CFU/mL
viable count, time-kill ([2]; 2 × MIC, 6 h): 15000 CFU/mL and 12000 CFU/mL and 14000 CFU/mL
time to complete killing ([2]; 4 × MIC): 3 h
viable count, time-kill ([2]; 4 × MIC, 0 h): 17000000 CFU/mL and 16000000 CFU/mL
viable count, time-kill ([2]; 4 × MIC, 1 h): 1300 CFU/mL and 1200 CFU/mL
viable count, time-kill ([2]; 4 × MIC, 3 h): 0 CFU/mL
viable count, time-kill ([2]; 4 × MIC, 6 h): 0 CFU/mL
viable count, time-kill ([2]; 4 × MIC, 24 h): 0 CFU/mL
viable count, time-kill ([2]; 8 × MIC, 0 h): 17000000 CFU/mL and 16000000 CFU/mL
viable count, time-kill ([2]; 8 × MIC, 1 h): 100 CFU/mL and 200 CFU/mL
viable count, time-kill ([2]; 8 × MIC, 3 h): 0 CFU/mL
viable count, time-kill ([2]; 8 × MIC, 6 h): 0 CFU/mL
viable count, time-kill ([2]; 8 × MIC, 24 h): 0 CFU/mL
viable count, time-kill ([2]; MIC, 0 h): 17000000 CFU/mL and 16000000 CFU/mL
viable count, time-kill ([2]; MIC, 1 h): 4500000 CFU/mL and 3500000 CFU/mL and 3700000 CFU/mL
viable count, time-kill ([2]; MIC, 3 h): 2300 CFU/mL and 1800 CFU/mL and 2200 CFU/mL
viable count, time-kill ([2]; MIC, 6 h): 230000 CFU/mL and 380000 CFU/mL and 310000 CFU/mL
viable count, time-kill ([2]; MIC, 24 h): 2000000000 CFU/mL and 3400000000 CFU/mL and 3000000000 CFU/mL
Concentration (MIC in drug resistance assay) ([3]; MRSA USA 300, day 0): 2 µg/mL
Concentration (MIC in drug resistance assay) ([3]; MRSA USA 300, day 1): 2 µg/mL
Concentration (MIC in drug resistance assay) ([3]; MRSA USA 300, day 2): 2 µg/mL
Concentration (MIC in drug resistance assay) ([3]; MRSA USA 300, day 3): 2 µg/mL
Concentration (MIC in drug resistance assay) ([3]; MRSA USA 300, day 4): 4 µg/mL
Concentration (MIC in drug resistance assay) ([3]; MRSA USA 300, day 5): 2 µg/mL
Concentration (MIC in drug resistance assay) ([3]; MRSA USA 300, day 6): 2 µg/mL
Concentration (MIC in drug resistance assay) ([3]; MRSA USA 300, day 7): 4 µg/mL
Concentration (MIC in drug resistance assay) ([3]; MRSA USA 300, day 8): 4 µg/mL
Concentration (MIC in drug resistance assay) ([3]; MRSA USA 300, day 9): 8 µg/mL
Concentration (MIC in drug resistance assay) ([3]; MRSA USA 300, day 10): 4 µg/mL
Concentration (MIC in drug resistance assay) ([3]; MRSA USA 300, day 11): 4 µg/mL
Concentration (MIC in drug resistance assay) ([3]; MRSA USA 300, day 12): 4 µg/mL
Concentration (MIC in drug resistance assay) ([3]; MRSA USA 300, day 13): 4 µg/mL
Concentration (MIC in drug resistance assay) ([3]; MRSA USA 300, day 14): 4 µg/mL
Concentration (MIC in drug resistance assay) ([3]; MRSA USA 300, day 15): 8 µg/mL
Concentration (MIC in drug resistance assay) ([3]; MRSA USA 300, day 16): 4 µg/mL
Concentration (MIC in drug resistance assay) ([3]; MRSA USA 300, day 17): 4 µg/mL
Concentration (MIC in drug resistance assay) ([3]; MRSA USA 300, day 18): 8 µg/mL
Concentration (MIC in drug resistance assay) ([3]; MRSA USA 300, day 19): 8 µg/mL
Concentration (MIC in drug resistance assay) ([3]; MRSA USA 300, day 20): 8 µg/mL
Concentration (MIC in drug resistance assay) ([3]; MRSA USA 300, day 21): 4 µg/mL
Concentration (MIC in drug resistance assay) ([3]; MRSA USA 300, day 22): 8 µg/mL
Concentration (MIC in drug resistance assay) ([3]; MRSA USA 300, day 23): 8 µg/mL
Concentration (MIC in drug resistance assay) ([3]; MRSA USA 300, day 24): 4 µg/mL
Concentration (MIC in drug resistance assay) ([3]; MRSA USA 300, day 25): 8 µg/mL
Concentration (MIC in drug resistance assay) ([3]; MRSA USA 300, day 26): 4 µg/mL
Concentration (MIC in drug resistance assay) ([3]; MRSA USA 300, day 27): 8 µg/mL
Concentration (MIC in drug resistance assay) ([3]; MRSA USA 300, day 28): 8 µg/mL
Concentration (MIC in drug resistance assay) ([3]; MRSA USA 300, day 29): 8 µg/mL
Concentration (MIC in drug resistance assay) ([3]; MRSA USA 300, day 30): 8 µg/mL
Concentration (MIC in drug resistance assay) ([3]; MRSA USA 300, day 31): 8 µg/mL
Concentration (MIC in drug resistance assay) ([3]; MRSA USA 300, day 32): 4 µg/mL
Concentration (MIC in drug resistance assay) ([3]; MRSA USA 300, day 33): 8 µg/mL
Concentration (MIC in drug resistance assay) ([3]; MRSA USA 300, day 34): 8 µg/mL
Concentration (MIC in drug resistance assay) ([3]; MRSA USA 300, day 35): 8 µg/mL
Concentration (MIC in drug resistance assay) ([3]; MRSA USA 300, day 36): 8 µg/mL
Concentration (MIC in drug resistance assay) ([3]; MRSA USA 300, day 37): 8 µg/mL
Concentration (MIC in drug resistance assay) ([3]; MRSA USA 300, day 38): 8 µg/mL
Concentration (MIC in drug resistance assay) ([3]; MRSA USA 300, day 39): 8 µg/mL
Concentration (MIC in drug resistance assay) ([3]; MRSA USA 300, day 40): 4 µg/mL
increase in MIC after 40 passages ([3]; serial passage at sub-MIC): four-fold
Concentration (MIC in drug resistance assay) ([4]; K. pneumoniae ATCC 700603, day 0): 6.25 µg/mL
Concentration (MIC in drug resistance assay) ([4]; K. pneumoniae ATCC 700603, day 1): 6.25 µg/mL
Concentration (MIC in drug resistance assay) ([4]; K. pneumoniae ATCC 700603, day 2): 6.25 µg/mL
Concentration (MIC in drug resistance assay) ([4]; K. pneumoniae ATCC 700603, day 3): 6.25 µg/mL
Concentration (MIC in drug resistance assay) ([4]; K. pneumoniae ATCC 700603, day 4): 12.5 µg/mL
Concentration (MIC in drug resistance assay) ([4]; K. pneumoniae ATCC 700603, day 5): 6.25 µg/mL
Concentration (MIC in drug resistance assay) ([4]; K. pneumoniae ATCC 700603, day 6): 6.25 µg/mL
Concentration (MIC in drug resistance assay) ([4]; K. pneumoniae ATCC 700603, day 7): 12.5 µg/mL
Concentration (MIC in drug resistance assay) ([4]; K. pneumoniae ATCC 700603, day 8): 25 µg/mL
Concentration (MIC in drug resistance assay) ([4]; K. pneumoniae ATCC 700603, day 9): 12.5 µg/mL
Concentration (MIC in drug resistance assay) ([4]; K. pneumoniae ATCC 700603, day 10): 12.5 µg/mL
Concentration (MIC in drug resistance assay) ([4]; K. pneumoniae ATCC 700603, day 11): 12.5 µg/mL
Concentration (MIC in drug resistance assay) ([4]; K. pneumoniae ATCC 700603, day 12): 25 µg/mL
Concentration (MIC in drug resistance assay) ([4]; K. pneumoniae ATCC 700603, day 13): 12.5 µg/mL
Concentration (MIC in drug resistance assay) ([4]; K. pneumoniae ATCC 700603, day 14): 25 µg/mL
Concentration (MIC in drug resistance assay) ([4]; K. pneumoniae ATCC 700603, day 15): 25 µg/mL
Concentration (MIC in drug resistance assay) ([4]; K. pneumoniae ATCC 700603, day 16): 12.5 µg/mL
Concentration (MIC in drug resistance assay) ([4]; K. pneumoniae ATCC 700603, day 17): 25 µg/mL
Concentration (MIC in drug resistance assay) ([4]; K. pneumoniae ATCC 700603, day 18): 25 µg/mL
Concentration (MIC in drug resistance assay) ([4]; K. pneumoniae ATCC 700603, day 19): 25 µg/mL
Concentration (MIC in drug resistance assay) ([4]; K. pneumoniae ATCC 700603, day 20): 25 µg/mL
Concentration (MIC in drug resistance assay) ([4]; K. pneumoniae ATCC 700603, day 21): 25 µg/mL
Concentration (MIC in drug resistance assay) ([4]; K. pneumoniae ATCC 700603, day 22): 25 µg/mL
Concentration (MIC in drug resistance assay) ([4]; K. pneumoniae ATCC 700603, day 23): 25 µg/mL
Concentration (MIC in drug resistance assay) ([4]; K. pneumoniae ATCC 700603, day 24): 25 µg/mL
Concentration (MIC in drug resistance assay) ([4]; K. pneumoniae ATCC 700603, day 25): 25 µg/mL
Concentration (MIC in drug resistance assay) ([4]; K. pneumoniae ATCC 700603, day 26): 12.5 µg/mL
Concentration (MIC in drug resistance assay) ([4]; K. pneumoniae ATCC 700603, day 27): 25 µg/mL
Concentration (MIC in drug resistance assay) ([4]; K. pneumoniae ATCC 700603, day 28): 25 µg/mL
Concentration (MIC in drug resistance assay) ([4]; K. pneumoniae ATCC 700603, day 29): 25 µg/mL
Concentration (MIC in drug resistance assay) ([4]; K. pneumoniae ATCC 700603, day 30): 25 µg/mL
Concentration (MIC in drug resistance assay) ([4]; K. pneumoniae ATCC 700603, day 31): 25 µg/mL
Concentration (MIC in drug resistance assay) ([4]; K. pneumoniae ATCC 700603, day 32): 12.5 µg/mL
Concentration (MIC in drug resistance assay) ([4]; K. pneumoniae ATCC 700603, day 33): 25 µg/mL
Concentration (MIC in drug resistance assay) ([4]; K. pneumoniae ATCC 700603, day 34): 12.5 µg/mL
Concentration (MIC in drug resistance assay) ([4]; K. pneumoniae ATCC 700603, day 35): 25 µg/mL
Concentration (MIC in drug resistance assay) ([4]; K. pneumoniae ATCC 700603, day 36): 25 µg/mL
Concentration (MIC in drug resistance assay) ([4]; K. pneumoniae ATCC 700603, day 37): 12.5 µg/mL
Concentration (MIC in drug resistance assay) ([4]; K. pneumoniae ATCC 700603, day 38): 25 µg/mL
Concentration (MIC in drug resistance assay) ([4]; K. pneumoniae ATCC 700603, day 39): 25 µg/mL
Concentration (MIC in drug resistance assay) ([4]; K. pneumoniae ATCC 700603, day 40): 12.5 µg/mL
increase in MIC after 40 passages ([4]; serial passage at sub-MIC): four-fold
